Legend:
IL-17A : IL-17RA binding = molecular target: T1, IL-17A : IL-17RA binding (Homo sapiens, UniProt Q16552, K93Q); test: IL-17A(FLAG-tagged):IL-17RA(His-tagged) binding disruption Eu-HTRF assay, Protocol 1; conditions: FLAG-IL-17A 2.5 nM at 2x final concentration; average if tested more than once
T1 construct: Name: IL-17A-Flag
From the text: An antibody directed against the FLAG tag of IL-17A (SEQ ID NO: 1) is labeled with the HTRF donor chromophore (Europium-cryptate). IL-17A is present as a dimer that is “locked into” this quaternary structure due to the formation of loop-spanning […] disulfide bridges. The construct of IL-17RA used in the assay excludes the […] portion of the receptor and is fused to a C-terminal 10×His tag (SEQ ID NO:2). An antibody directed against the His tag of the IL-17RA chimera is labeled with the HTRF acceptor chromophore (“D2”). The fluorescence-resonance energy transfer (FRET) depends on the vicinity of the donor chromophore to the acceptor, and interruption of the binding between the IL-17A and IL-17RA causes the reduction/loss of FRET. Therefore, this assay allows to evaluate the compound effect on the binding IL-17A and IL-17RA by monitoring the fluorescence intensity of donor vs acceptor. The assay was run using either Protocol 1 or Protocol 2 as described below.
Protocol 1. 40 nl of 2-fold serial diluted compound solution for total 22 dilution points is added into each well of a 1536-well, white, low-volume, non-binding plate (Greiner #782904), then 2 μl of FLAG tagged IL-17A at 2× final concentration (2.5 nM) in solution of PBS+0.01% Triton-X100 is added to each well. The assay plate is briefly centrifuged then incubated for 1 h at rt. A mixed solution is prepared containing 2×5 nM 10HIS×IL-17RA, 2×2.5 nM Eu-anti-FLAG (CISBIO), 2×5 nM D2-anti-HIS (CISBIO) in PBS+0.01% Triton-X100+200 mM Potassium Fluoride (Sigma 60238) and 2 μl of mix is added to each well of the assay plate. The plate is briefly centrifuged then incubated for 2 h at rt. The HTRF intensities at the wavelength of donor (620 nm) and acceptor (665 nm) are measured using BMG Pherastar. The ratio between intensities at two wavelengths is calculated and plotted against the compound concentration and the data is fitted to a one-site competition model to yield IC50 of the compound.

[1] = system: IL-17A-induced G-CSF production in human normal keratinocyte (NHK); test: NHK assay: IL-17A-induced G-CSF production in normal human keratinocytes; assay type: cell-based; conditions: Homo sapiens, Keratinocyte, 24 h, IL-17A 5 ng/mL, average if tested more than once
Protocol: IL-17A acts directly on keratinocytes through binding to dimeric receptor IL-17RA/RC and drives the production of a number of inflammatory mediators known to be elevated in psoriasis lesional tissue. IL-17A small molecule inhibitors that block the IL-17A to interact with IL-17R would inhibit the IL-17A signaling in its targeted cells such as keratinocytes. The compound functional activity is evaluated for its impact on IL-17A-induced G-CSF production in human normal keratinocyte (NHK).
Adult normal human keratinocytes are cultured in keratinocyte growth medium (Lonza) in a flask till reaching ˜90% confluence, then cells are transferred to a 384-well plate at density of 3000-4000 cell/well. Recombinant human IL-17A (Gibco PHC9174) is pre-incubated with titrated compound or DMSO for 1 h at rt then added to the cell culture plate. The final concentration of IL-17A is 5 ng/mL and DMSO is 0.2%, in the culture containing 5% FBS. Cells are cultured/treated for 24 h at 37° C. Supernatants are collected and G-CSF production is measured through HTRF technology using Human G-CSF Kit (CisBio). G-CSF concentration was extrapolated from the standard curve and IC50 is determined using GraphPad Prism. Cell viability is also evaluated using CellTiter-Glo kit (Promega) and effect of compound on cell viability is compared to DMSO control.

T1 sequence (Q16552 with tags, fused parts or gaps K93Q): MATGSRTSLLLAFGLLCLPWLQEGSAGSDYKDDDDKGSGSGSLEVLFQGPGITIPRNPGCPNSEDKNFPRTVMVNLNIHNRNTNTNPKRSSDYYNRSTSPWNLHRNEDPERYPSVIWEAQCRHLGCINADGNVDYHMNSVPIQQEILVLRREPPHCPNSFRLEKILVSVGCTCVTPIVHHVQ

SMILES | IC50 (IL-17A : IL-17RA binding) | IC50 [1]
C[C@@H](NC(=O)CCC(F)(F)F)c1ccc2[nH]c([C@@H](NC(=O)[C@@H]3C[C@H]3C#N)C3CCC(F)(F)CC3)nc2c1 (relative stereo) [Example 104, trans-(1R*,2R*)-2-Cyano-N—((S)-(4,4-difluorocyclohexyl)(5-((R)-1-(4,4,4-trifluorobutanamido)ethyl)-1H-benzo[d]imidazol-2-yl)methyl)cyclopropane-1-carboxamide] | > 100 nM | > 100 nM
C[C@@H](NC(=O)CCC(F)(F)F)c1ccc2[nH]c([C@@H](NC(=O)[C@H]3C[C@@H]3C(F)(F)F)C3CCC(F)(F)CC3)nc2c1 (relative stereo) [Example 105, trans-(1S*,2S*)—N—((S)-(4,4-Difluorocyclohexyl)(5-((R)-1-(4,4,4-trifluorobutanamido)ethyl)-1H-benzo[d]imidazol-2-yl)methyl)-2-(trifluoromethyl)cyclopropane-1-carboxamide] | > 100 nM | > 100 nM
C[C@@H](NC(=O)CCC(F)(F)F)c1ccc2[nH]c([C@@H](NC(=O)[C@@H]3C[C@H]3C(F)(F)F)C3CCC(F)(F)CC3)nc2c1 (relative stereo) [Example 106, trans-(1R*,2R*)—N—((S)-(4,4-Difluorocyclohexyl)(5-((R)-1-(4,4,4-trifluorobutanamido)ethyl)-1H-benzo[d]imidazol-2-yl)methyl)-2-(trifluoromethyl)cyclopropane-1-carboxamide] | > 100 nM | > 100 nM
C[C@@H](NC(=O)CCC(F)(F)F)c1ccc2[nH]c([C@@H](NC(=O)C3(C)CC3(F)F)C3CCC(F)(F)CC3)nc2c1 (relative stereo) [Example 109, N—((S)-(4,4-Difluorocyclohexyl)(5-((R*)-1-(4,4,4-trifluorobutanamido)ethyl)-1H-benzo[d]imidazol-2-yl)methyl)-2,2-difluoro-1-methylcyclopropane-1-carboxamide] | > 100 nM | > 100 nM
Cc1nonc1C(=O)N[C@@H](CO[C@H](C)C(F)(F)F)c1nc2ccc([C@H](NC(=O)CC3CC(F)(F)C3)C3CC3)cc2[nH]1 (relative stereo) [Example 150, N—((R*)-1-(6-((R)-Cyclopropyl(2-(3,3-difluorocyclobutyl)acetamido)methyl)-1H-benzo[d]imidazol-2-yl)-2-(((R*)-1,1,1-trifluoropropan-2-yl)oxy)ethyl)-4-methyl-1,2,5-oxadiazole-3-carboxamide] | > 100 nM | > 100 nM
CCc1nonc1C(=O)N[C@@H](CC(C)(C)C(F)(F)F)c1nc2cc([C@@H](NC(=O)CCC(F)(F)F)C3CC3)ccc2[nH]1 (relative stereo) [Example 189, N—((S*)-1-(5-((S*)-Cyclopropyl(4,4,4-trifluorobutanamido)methyl)-1H-benzo[d]imidazol-2-yl)-4,4,4-trifluoro-3,3-dimethylbutyl)-4-ethyl-1,2,5-oxadiazole-3-carboxamide] | > 100 nM | > 100 nM
Cc1nonc1C(=O)N[C@@H](CC(C)(C)C(F)(F)F)c1nc2cc([C@@H](NC(=O)CCC(F)(F)F)C3CC3)ccc2[nH]1 (relative stereo) [Example 192, N—((S*)-1-(5-((S*)-Cyclopropyl(4,4,4-trifluorobutanamido)methyl)-1H-benzo[d]imidazol-2-yl)-4,4,4-trifluoro-3,3-dimethylbutyl)-4-methyl-1,2,5-oxadiazole-3-carboxamide] | > 100 nM | > 100 nM
C[C@@H](NC(=O)CCC(F)(F)F)c1ccc2[nH]c([C@@H](NC(=O)c3nnc(CCC(F)(F)F)o3)C3CCC(F)(F)CC3)nc2c1 [Example 187, N—((S)-(4,4-Difluorocyclohexyl)(5-((R)-1-(4,4,4-trifluorobutanamido)ethyl)-1H-benzo[d]imidazol-2-yl)methyl)-5-(3,3,3-trifluoropropyl)-1,3,4-oxadiazole-2-carboxamide] |  | > 100 nM

Now from value to compound, other results behind:

IC50 (IL-17A : IL-17RA binding) | SMILES | IC50 [1]
> 100 nM | C[C@@H](NC(=O)CCC(F)(F)F)c1ccc2[nH]c([C@@H](NC(=O)[C@H]3C[C@@H]3C#N)C3CCC(F)(F)CC3)nc2c1 (relative stereo) [Example 103, trans-(1S*,2S*)-2-Cyano-N—((S)-(4,4-difluorocyclohexyl)(5-((R)-1-(4,4,4-trifluorobutanamido)ethyl)-1H-benzo[d]imidazol-2-yl)methyl)cyclopropane-1-carboxamide] | > 100 nM
< 50 nM | C[C@@H](OC[C@H](NC(=O)c1nonc1C1CC1)c1nc2ccc([C@H](NC(=O)CC3CC(F)(F)C3)C3CC3)cc2[nH]1)C(F)(F)F (relative stereo) [Example 155, 4-Cyclopropyl-N—((R*)-1-(6-((R)-cyclopropyl(2-(3,3-difluorocyclobutyl)acetamido)methyl)-1H-benzo[d]imidazol-2-yl)-2-(((R)-1,1,1-trifluoropropan-2-yl)oxy)ethyl)-1,2,5-oxadiazole-3-carboxamide] | > 100 nM
50 to 100 nM | CC(C)n1nccc1C(=O)N[C@@H](COC(C)C(F)(F)F)c1nc2ccc([C@H](NC(=O)CC3CC(F)(F)C3)C3CC3)cc2[nH]1 (relative stereo) [Example 156, N—((R*)-1-(6-((R)-Cyclopropyl(2-(3,3-difluorocyclobutyl)acetamido)methyl)-1H-benzo[d]imidazol-2-yl)-2-(((R)-1,1,1-trifluoropropan-2-yl)oxy)ethyl)-1-isopropyl-1H-pyrazole-5-carboxamide] | 50 to 100 nM
< 50 nM | CC(C)n1nccc1C(=O)N[C@@H](CO[C@@H](C)C(F)(F)F)c1nc2ccc([C@H](NC(=O)CC3CC(F)(F)C3)C3CC3)cc2[nH]1 (relative stereo) [Example 158, N—((R*)-1-(6-((R)-Cyclopropyl(2-(3,3-difluorocyclobutyl)acetamido)methyl)-1H-benzo[d]imidazol-2-yl)-2-(((S)-1,1,1-trifluoropropan-2-yl)oxy)ethyl)-1-isopropyl-1H-pyrazole-5-carboxamide] | > 100 nM
< 50 nM | Cc1nonc1C(=O)N[C@@H](COC(C)(C)C(F)(F)F)c1nc2ccc([C@H](NC(=O)CC3CC(F)(F)C3)C3CC3)cc2[nH]1 (relative stereo) [Example 161, N—((R*)-1-(6-((R)-Cyclopropyl(2-(3,3-difluorocyclobutyl)acetamido)methyl)-1H-benzo[d]imidazol-2-yl)-2-((1,1,1-trifluoro-2-methylpropan-2-yl)oxy)ethyl)-4-methyl-1,2,5-oxadiazole-3-carboxamide] | 50 to 100 nM
< 50 nM | CCc1nonc1C(=O)N[C@@H](CC(C)(C)C(F)(F)F)c1nc2cc([C@H](NC(=O)CCC(F)(F)F)C3CC3)ccc2[nH]1 (relative stereo) [Example 190, N—((S*)-1-(5-((R*)-Cyclopropyl(4,4,4-trifluorobutanamido)methyl)-1H-benzo[d]imidazol-2-yl)-4,4,4-trifluoro-3,3-dimethylbutyl)-4-ethyl-1,2,5-oxadiazole-3-carboxamide] | < 50 nM
< 50 nM | Cc1nonc1C(=O)N[C@@H](CC(C)(C)C(F)(F)F)c1nc2cc([C@H](NC(=O)CCC(F)(F)F)C3CC3)ccc2[nH]1 (relative stereo) [Example 193, N—((S*)-1-(5-((R*)-Cyclopropyl(4,4,4-trifluorobutanamido)methyl)-1H-benzo[d]imidazol-2-yl)-4,4,4-trifluoro-3,3-dimethylbutyl)-4-methyl-1,2,5-oxadiazole-3-carboxamide] | 50 to 100 nM
